Assay results from US9290451B2 (Hoffmann-La Roche Inc., priority 2011, dated 2016).

Assays:
human CB2 receptors = human CB2 receptors (Homo sapiens (Human), UniProt P34972); assay: cAMP assay, CHO cells expressing human CB2 receptors; assay type: cell-based; conditions: CHO cells expressing human CB2, cAMP; read-out: human CB2 EC50
Experimental: (§1) CHO cells expressing human CB1 or CB2 receptors are seeded 17-24 hours prior to the experiment 50.000 cells per well in a black 96 well plate with flat clear bottom (Corning Costar #3904) in DMEM (Invitrogen No. 31331), 1×HT supplement, with 10% fetal calf serum and incubated at 5% CO2 and 37° C. in a humidified incubator. The growth medium was exchanged with Krebs Ringer Bicarbonate buffer with 1 mM IBMX and incubated at 30° C. for 30 min Compounds were added to a final assay volume of 100 μl and incubated for 30 min at 30° C. Using the cAMP-Nano-TRF detection kit the assay (Roche Diagnostics) was stopped by the addition of 50 μl lysis reagent (Tris, NaCl, 1.5% Triton X100, 2.5% NP40, 10% NaN3) and 50 μl detection solutions (20 μM mAb Alexa700-cAMP 1:1, and 48 μM Ruthenium-2-AHA-cAMP) and shaken for 2 h at room temperature. The time-resolved energy transfer is measured by a TRF reader (Evotec Technologies GmbH), equipped with a ND:YAG laser as excitation source. The plate is measured twice with the excitation at 355 nm and at the emission with a delay of 100 ns and a gate of 100 ns, total exposure time 10 s at 730 (bandwidth 30 nm) or 645 nm (bandwidth 75 nm), respectively. The FRET signal is calculated as follows: FRET=T730-Alexa730-P(T645-B645) with P═Ru730-B730/Ru645-B645, where T730 is the test well measured at […], T645 is the test well measured at 645 nm, B730 and B645 are the buffer controls at 730 nm and 645 nm, respectively. cAMP content is determined from the function of a standard curve spanning from 10 μM to 0.13 nM cAMP.
(§2) EC50 values were determined using Activity Base analysis (ID Business Solution, Limited). The EC50 values for a wide range of cannabinoid agonists generated from this assay for reference compounds were in agreement with the values published in the scientific literature.

human CB1 receptors = human CB1 receptors (Homo sapiens (Human), UniProt P21554); assay: cAMP assay, CHO cells expressing human CB1 receptors; assay type: cell-based; conditions: CHO cells expressing human CB1, cAMP; read-out: human CB1 EC50
human CB1 receptors, sequence (P21554 whole entry): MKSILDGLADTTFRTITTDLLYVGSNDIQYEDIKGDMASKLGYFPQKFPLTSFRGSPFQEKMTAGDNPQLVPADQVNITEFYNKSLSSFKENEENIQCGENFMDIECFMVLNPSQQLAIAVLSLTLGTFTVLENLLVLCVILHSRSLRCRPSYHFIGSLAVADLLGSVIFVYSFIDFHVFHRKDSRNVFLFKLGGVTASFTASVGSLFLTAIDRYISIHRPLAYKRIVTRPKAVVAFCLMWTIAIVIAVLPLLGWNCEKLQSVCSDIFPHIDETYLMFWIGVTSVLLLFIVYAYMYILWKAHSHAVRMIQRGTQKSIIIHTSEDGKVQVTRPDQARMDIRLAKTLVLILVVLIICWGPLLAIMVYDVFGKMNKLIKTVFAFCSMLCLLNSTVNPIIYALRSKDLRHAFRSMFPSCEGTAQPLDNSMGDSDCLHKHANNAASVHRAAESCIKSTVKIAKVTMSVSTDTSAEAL
Experimental: as §1, §2

human CB2 receptors, sequence (P34972 whole entry): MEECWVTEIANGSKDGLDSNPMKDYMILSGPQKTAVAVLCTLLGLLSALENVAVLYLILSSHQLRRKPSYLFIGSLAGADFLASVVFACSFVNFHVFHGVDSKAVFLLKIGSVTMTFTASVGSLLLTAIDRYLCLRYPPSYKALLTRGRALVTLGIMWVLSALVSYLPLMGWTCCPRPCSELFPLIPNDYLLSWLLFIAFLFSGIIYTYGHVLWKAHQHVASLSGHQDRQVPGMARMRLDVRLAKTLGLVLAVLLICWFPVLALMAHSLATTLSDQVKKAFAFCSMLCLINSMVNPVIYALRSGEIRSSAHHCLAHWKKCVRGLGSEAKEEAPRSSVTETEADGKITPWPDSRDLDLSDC

| SMILES | EC50 (human CB2 receptors) [nM] | EC50 (human CB1 receptors) [nM] |
| --- | --- | --- |
| CC(C)(CCN1CCOCC1)NC(=O)c1ccc(C2CC2)c(OCC2CC2)n1 [Example 154, 5-Cyclopropyl-6-cyclopropylmethoxy-pyridine-2-carboxylic acid (1,1-dimethyl-3-morpholin-4-yl-propyl)-amide] | 150 | > 10000 |
| CCN(C)C(=O)C(CC)(CC)NC(=O)c1ccc(C2CC2)c(OCC2CC2)n1 [Example 276, 5-Cyclopropyl-6-cyclopropylmethoxy-pyridine-2-carboxylic acid [1-ethyl-1-(ethyl-methyl-carbamoyl)-propyl]-amide] | 24.6 | > 10000 |
| CCOC(=O)C(CC)(CC)NC(=O)c1ccc(Br)c(OCC2CC2)n1 [Example 265, 2-[(5-Bromo-6-cyclopropylmethoxy-pyridine-2-carbonyl)-amino]-2-ethyl-butyric acid ethyl ester] | 2.8 | > 10000 |
| Cc1ccc(C(=O)NC(C)(C)c2nccs2)nc1-c1cccc(Cl)c1 [Example 50, 6-(3-Chloro-phenyl)-5-methyl-pyridine-2-carboxylic acid (1-methyl-1-thiazol-2-yl-ethyl)-amide] | 133 | 1490 |
| CC1(COc2nc(C(=O)NC(C)(C)c3nccs3)ccc2N2CC(F)(F)C2)COC1 [Example 295, 5-(3,3-Difluoro-azetidin-1-yl)-6-(3-methyl-oxetan-3-ylmethoxy)-pyridine-2-carboxylic acid (1-methyl-1-thiazol-2-yl-ethyl)-amide] | 259 | > 10000 |
| CC(C)(NC(=O)c1ccc(Cl)c(-c2cccc(Cl)c2)n1)c1nccs1 [Example 58, 5-Chloro-6-(3-chloro-phenyl)-pyridine-2-carboxylic acid (1-methyl-1-thiazol-2-yl-ethyl)-amide] | 104 | 1110 |
| CC1(COc2nc(C(=O)NC3(c4nccs4)COC3)ccc2Br)COC1 [Example 281, 5-Bromo-6-(3-methyl-oxetan-3-ylmethoxy)-pyridine-2-carboxylic acid (3-thiazol-2-yl-oxetan-3-yl)-amide] | 447 | > 10000 |
| CC(C)C[C@H](NC(=O)c1ccc(Br)c(Oc2ccc(F)cc2)n1)C(N)=O [Example 177, 5-Bromo-6-(4-fluoro-phenoxy)-pyridine-2-carboxylic acid ((S)-1-carbamoyl-3-methyl-butyl)-amide] | 196 | > 10000 |
| CC(C)C[C@H](NC(=O)c1ccc(C(F)(F)F)c(OCC2CC2)n1)C(N)=O [Example 118, 6-Cyclopropylmethoxy-5-trifluoromethyl-pyridine-2-carboxylic acid ((S)-1-carbamoyl-3-methyl-butyl)-amide] | 13.4 | 1550 |
| CNC(=O)[C@@H](NC(=O)c1cccc(-c2cccc(OC)c2)n1)C(C)(C)C [Example 215, (S)-N-(3,3-Dimethyl-1-(methylamino)-1-oxobutan-2-yl)-6-(3-methoxyphenyl) picolinamide] | 125 | > 10000 |
| CC(C)(NC(=O)c1ccc(C2CCCC2)c(OCC2CC2)n1)c1nccs1 [Example 55, 5-Cyclopentyl-6-cyclopropylmethoxy-pyridine-2-carboxylic acid (1-methyl-1-thiazol-2-yl-ethyl)-amide] | 31.7 | 1390 |
| O=C(NN1CCCCC1)c1cccc(C2CCCCC2)n1 [Example 24, 6-Cyclohexyl-pyridine-2-carboxylic acid piperidin-1-ylamide] | 15.6 | > 10000 |
| CNC(=O)[C@H](CC(C)(C)C)NC(=O)c1cccc(Cc2ccc(F)cc2)n1 [Example 286, 6-(4-Fluoro-benzyl)-pyridine-2-carboxylic acid ((S)-3,3-dimethyl-1-methylcarbamoyl-butyl)-amide] | 8.2 | 1870 |
| CNC(=O)[C@@H](NC(=O)c1ccc(C2CC2)c(OCC2CCOCC2)n1)C(C)(C)C [Example 195, (S)-5-Cyclopropyl-N-(3,3-dimethyl-1-(methylamino)-1-oxobutan-2-yl)-6-((tetrahydro-2H-pyran-4-yl)methoxy)picolinamide] | 1.4 | 206 |
| CCC(CC)(NC(=O)c1ccc(C2CC2)c(O[C@H](CCO)C(F)(F)F)n1)C(=O)NC [Example 313, 5-Cyclopropyl-6-((R)-3-hydroxy-1-trifluoromethyl-propoxy)-pyridine-2-carboxylic acid (1-ethyl-1-methylcarbamoyl-propyl)-amide] | 981 | > 10000 |
| CC(C)(NC(=O)c1ccc(Cl)c(-c2cccc(Cl)c2)n1)c1ncon1 [Example 88, 5-Chloro-6-(3-chloro-phenyl)-pyridine-2-carboxylic acid (1-methyl-1-[1,2,4]oxadiazol-3-yl-ethyl)-amide] | 356 | > 10000 |
| CC(C)C[C@H](NC(=O)c1ccc(C2CC2)c(S(=O)(=O)CC(C)C)n1)C(N)=O [Example 351, 5-Cyclopropyl-6-(2-methyl-propane-1-sulfonyl)-pyridine-2-carboxylic acid ((S)-1-carbamoyl-3-methyl-butyl)-amide] | 39.9 | > 10000 |
| CCC(CC)(NC(=O)c1ccc(C2CC2)c(OCC2CC2)n1)C(=O)OC [Example 251, 2-[(5-Cyclopropyl-6-cyclopropylmethoxy-pyridine-2-carbonyl)-amino]-2-ethyl-butyric acid methyl ester] | 1.4 | 90.6 |
| COc1ccc(C(=O)NC(C)(C)c2noc(C)n2)nc1-c1cccc(Cl)c1 [Example 89, 6-(3-Chloro-phenyl)-5-methoxy-pyridine-2-carboxylic acid [1-methyl-1-(5-methyl-[1,2,4]oxadiazol-3-yl)-ethyl]-amide] | 119 | 1360 |
| N#C[C@H](NC(=O)c1ccc(C2CC2)c(OCC2CC2)n1)C1CC1 [Example 248, 5-Cyclopropyl-6-cyclopropylmethoxy-pyridine-2-carboxylic acid ((+)-cyano-cyclopropyl-methyl)-amide] | 51 | > 10000 |
| O=C(N[C@@H](CC1CC1)c1nccs1)c1ccc(C2CCOCC2)c(OCC2CC2)n1 [Example 59, 6-Cyclopropylmethoxy-5-(tetrahydro-pyran-4-yl)-pyridine-2-carboxylic acid ((S)-2-cyclopropyl-1-thiazol-2-yl-ethyl)-amide] | 32.5 | > 10000 |
| CC(C)(C)NC(=O)c1ccc(C2CC2)c(OCC2CC2)n1 [Example 368, 5-Cyclopropyl-6-cyclopropylmethoxy-pyridine-2-carboxylic acid tert-butylamide] | 26.3 | > 10000 |
| Cc1nc(C(C)(C)NC(=O)c2ccc(Cl)c(OCC3CC3)n2)no1 [Example 108, 5-Chloro-6-cyclopropylmethoxy-pyridine-2-carboxylic acid [1-methyl-1-(5-methyl-[1,2,4]oxadiazol-3-yl)-ethyl]-amide] | 190 | > 10000 |
| CN(C)C(=O)[C@@H](NC(=O)c1ccc(C2CC2)c(OCC2CC2)n1)c1ccccc1 [Example 226, 5-Cyclopropyl-6-cyclopropylmethoxy-pyridine-2-carboxylic acid ((+)-dimethylcarbamoyl-phenyl-methyl)-amide] | 19.9 | > 10000 |
| CC(C)C[C@@H](CO)NC(=O)c1ccc(C2CC2)c(OCC(F)(F)F)n1 [Example 303, 5-Cyclopropyl-6-(2,2,2-trifluoro-ethoxy)-pyridine-2-carboxylic acid ((S)-1-hydroxymethyl-3-methyl-butyl)-amide] | 38 | > 10000 |
| CC(C)CC(NC(=O)c1ccc(N2CC(F)(F)C2)c(OCC2CC2)n1)c1ncccn1 (stereo not shown) [Example 339, 6-Cyclopropylmethoxy-5-(3,3-difluoro-azetidin-1-yl)-pyridine-2-carboxylic acid (3-methyl-1-pyrimidin-2-yl-butyl)-amide] | 64.9 | > 10000 |
| Cc1nc([C@H](CC2CC2)NC(=O)c2cccc(-c3cccc(Cl)c3)n2)no1 [Example 38] | 99.7 | > 10000 |
| CCOC(=O)C(CC)(CC)NC(=O)c1ccc(N2CCC23COC3)c(OCC2CC2)n1 [Example 263, 2-{[6-Cyclopropylmethoxy-5-(6-oxa-1-aza-spiro[3.3]hept-1-yl)-pyridine-2-carbonyl]-amino}-2-ethyl-butyric acid ethyl ester] | 4.5 | > 10000 |
| CC(C)(NC(=O)c1ccc(Cl)c(-c2cccc(Cl)c2)n1)c1ncco1 [Example 104, 5-Chloro-6-(3-chloro-phenyl)-pyridine-2-carboxylic acid (1-methyl-1-oxazol-2-yl-ethyl)-amide] | 517 | > 10000 |
